Measured values published in patent publication US8846730B2, “Compounds as cannabinoid receptor ligands” (priority 2008, dated 2014).
Like-named read-outs stand apart in the source and are kept apart here.

Columns and labels:
human CB2 receptors = human CB2 receptors (Homo sapiens (Human), UniProt P34972); test: human CB2 radioligand binding assay ([3H]CP 55,940 competition)
Experimental: (§1) The CB1 and CB2 radioligand binding assays described herein are utilized to ascertain the affinity of compounds of the present application for binding to CB2 relative to CB1 receptors.
HEK293 cells stably expressing human CB2 receptors were grown until a confluent monolayer was formed. Briefly, the cells were harvested and homogenized in TE buffer (50 mM Tris-HCl, 1 mM MgCl2, and 1 mM EDTA) using a polytron for 2×10 second bursts in the presence of protease inhibitors, followed by centrifugation at 45,000×g for 20 minutes. The final membrane pellet was re-homogenized in storage buffer (50 mM Tris-HCl, 1 mM MgCl2, and 1 mM EDTA and 10% sucrose) and frozen at −78° C. until used. Saturation binding reactions were initiated by the addition of membrane preparation (protein concentration of 5 μg/well for human CB2) into wells of a deep well plate containing [^3H]CP 55,940 (120 Ci/mmol, a nonselective CB agonist commercially available from Tocris) in assay buffer (50 mM Tris, 2.5 mM EDTA, 5 mM MgCl2, and 0.5 mg/mL fatty acid free BSA, pH 7.4). After 90 min incubation at 30° C., binding reaction was terminated by the addition of 300 μL/well of cold assay buffer followed by rapid vacuum filtration through a UniFilter-96 GF/C filter plates (pre-soaked in 1 mg/mL BSA for 2 hours). The bound activity was counted in a TopCount using Microscint-20. Saturation experiments were conducted with twelve concentrations of [^3H]CP 55,940 ranging from 0.01 to 8 nM. Competition experiments were conducted with 0.5 nM [^3H]CP 55,940 and five concentrations (0.01 nM to 10 μM) of displacing ligands. The addition of 10 μM unlabeled CP 55,940 (Tocris, Ellisville, Mo.) was used to assess nonspecific binding.

[1] = biological target: rat CB1 receptors (HEK cells) (Rattus norvegicus (Rat), UniProt P20272); test: rat CB1 cyclase functional assay (HitHunter cAMP); format: cell-based
Chain of rat CB1 receptors (HEK cells) (P20272 whole entry): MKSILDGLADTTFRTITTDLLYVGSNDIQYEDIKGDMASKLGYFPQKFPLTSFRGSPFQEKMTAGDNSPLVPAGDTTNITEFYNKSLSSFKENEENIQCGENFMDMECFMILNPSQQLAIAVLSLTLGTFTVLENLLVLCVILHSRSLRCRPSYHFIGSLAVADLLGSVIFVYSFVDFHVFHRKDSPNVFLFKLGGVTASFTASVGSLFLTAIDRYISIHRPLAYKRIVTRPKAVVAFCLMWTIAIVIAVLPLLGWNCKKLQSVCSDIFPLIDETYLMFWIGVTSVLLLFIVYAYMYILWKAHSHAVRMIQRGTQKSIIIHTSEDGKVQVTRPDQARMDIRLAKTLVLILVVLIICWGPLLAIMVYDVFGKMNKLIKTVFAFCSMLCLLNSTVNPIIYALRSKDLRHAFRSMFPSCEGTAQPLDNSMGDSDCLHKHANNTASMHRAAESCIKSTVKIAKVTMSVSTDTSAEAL
Experimental: The cyclase functional assays were performed using the HitHunter™ cAMP assay kit from DiscoveRx (Fremont, Calif.) according to vendor's protocol. Briefly, HEK cells expressing CB2 or CB1 receptors (rat or human) were detached using cell dissociation buffer (Invitrogen, Carlsbad, Calif.), dispersed and placed in suspension at 10,000 cells per well in 96 well plates prior to the assay. Cell suspensions were incubated at 37° C. for 20 min with variable concentrations of test ligands and or 10 μM CP 55,940-positive control in the presence of a fixed concentration of forskolin (18 μM for rat CB2 and 37 μM for rat CB1) in Dulbescco's phosphate-buffered saline (Invitrogen, Carlsbad, Calif.) supplemented with bovine serum albumin (0.01% final concentration). The reactions were terminated by the addition of lysis buffer and the luminescence was detected following the procedure according to the manufacturer's instructions. EC50 values were calculated using sigmoidal dose-response curve fitting from Prism (GraphPad).

rat CB2 receptors = rat CB2 receptors (Rattus norvegicus (Rat), UniProt Q9QZN9); test: rat CB2 radioligand binding assay ([3H]CP 55,940 competition); conditions: HEK293 membranes, 0.5 nM [3H]CP 55,940
Experimental: as §1
HEK293 cells stably expressing rat CB2 receptors were grown until a confluent monolayer was formed. Briefly, the cells were harvested and homogenized in TE buffer (50 mM Tris-HCl, 1 mM MgCl2, and 1 mM EDTA) using a polytron for 2×10 second bursts in the presence of protease inhibitors, followed by centrifugation at 45,000×g for 20 minutes. The final membrane pellet was re-homogenized in storage buffer (50 mM Tris-HCl, 1 mM MgCl2, and 1 mM EDTA and 10% sucrose) and frozen at −78° C. until used. Saturation binding reactions were initiated by the addition of membrane preparation (protein concentration of 20 μg/well for rat CB2) into wells of a deep well plate containing [^3H]CP 55,940 (120 Ci/mmol, a nonselective CB agonist commercially available from Tocris) in assay buffer (50 mM Tris, 2.5 mM EDTA, 5 mM MgCl2, and 0.5 mg/mL fatty acid free BSA, pH 7.4). After 45 min incubation at 30° C., binding reaction was terminated by the addition of 300 μl/well of cold assay buffer followed by rapid vacuum filtration through a UniFilter-96 GF/C filter plates (pre-soaked in 1 mg/mL BSA for 2 hours). The bound activity was counted in a TopCount using Microscint-20. Saturation experiments were conducted with twelve concentrations of [^3H]CP 55,940 ranging from 0.01 to 8 nM. Competition experiments were conducted with 0.5 nM [^3H]CP 55,940 and five concentrations of displacing ligands selected from the range of 0.01 nM to 10 μM. The addition of 10 μM unlabeled CP 55,940 (Tocris, Ellisville, Mo.) was used to assess nonspecific binding.

[2] = HEK293 membranes, 0.5 nM [3H]CP 55,940, read-out: human CB2 (Ki)
[3] = HEK cells, forskolin 37 μM, read-out: rCB1 cyclase (EC50)

Chain of human CB2 receptors (P34972 whole entry): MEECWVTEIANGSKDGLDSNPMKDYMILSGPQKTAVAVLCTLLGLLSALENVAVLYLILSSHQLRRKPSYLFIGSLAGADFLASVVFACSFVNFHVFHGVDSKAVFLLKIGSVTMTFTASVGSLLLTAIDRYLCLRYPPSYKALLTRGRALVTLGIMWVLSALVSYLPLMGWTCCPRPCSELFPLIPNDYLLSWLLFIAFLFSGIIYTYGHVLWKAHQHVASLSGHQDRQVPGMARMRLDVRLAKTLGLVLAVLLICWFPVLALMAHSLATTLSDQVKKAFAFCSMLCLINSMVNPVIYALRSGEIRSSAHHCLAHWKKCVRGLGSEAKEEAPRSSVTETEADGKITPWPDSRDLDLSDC

SMILES | Ki (human CB2 receptors; [2]) [nM] | EC50 [1, 3] [nM] | Ki (rat CB2 receptors) [nM] | Ki (human CB2 receptors) [nM] | EC50 [1] [nM]
CC(C)(C)NNc1ccc(C(F)(F)F)cc1C(=O)/N=c1\sc(C(C)(C)C)cn1C[C@H]1CCCO1 [Example 39, 2-(2-tert-butylhydrazino)-N-[(2Z)-5-tert-butyl-3-[(2R)-tetrahydrofuran-2-ylmethyl]-1,3-thiazol-2(3H)-ylidene]-5-(trifluoromethyl)benzamide] | 3.7 | > 27000 | 1.7 | – | –
CC(C)(C)OC(=O)NNc1ccc(C(F)(F)F)cc1C(=O)/N=c1\sc(C(C)(C)C)cn1C[C@H]1CCCO1 [Example 40, tert-butyl 2-[2-({[(2Z)-5-tert-butyl-3-[(2R)-tetrahydrofuran-2-ylmethyl]-1,3-thiazol-2(3H)-ylidene]amino}carbonyl)-4-(trifluoromethyl)phenyl]hydrazinecarboxylate] | – | – | 0.3 | 0.4 | –
CC(=O)N1CCC[C@H]1COc1ccc(C(F)(F)F)cc1C(=O)/N=c1\sc(C(C)(C)C)cn1C[C@H]1CCCO1 [Example 47, 2-{[(2S)-1-acetylpyrrolidin-2-yl]methoxy}-N-[(2Z)-5-tert-but 1-3[(2R)-tetrahydrofuran-2-ylmethyl]-1,3-thiazol-2(3H)-ylidene]-5-(trifluoromethyl)benzamide] | 107 | – | 24 | – | –
CN1CCC[C@H]1CNc1ccc(C(F)(F)F)cc1C(=O)/N=c1\sc(C(C)(C)C)cn1C[C@H]1CCCO1 [Example 55, N-[(2Z)-5-tert-butyl-3-[(2R)-tetrahydrofuran-2-ylmethyl]-1,3-thiazol-2(3H)-ylidene]-2-({[(2S)-1-methylpyrrolidin-2-yl]methyl}amino)-5-(trifluoromethyl)benzamide] | 36 | – | 8.1 | – | –
CN1CCC[C@H]1COc1ccc(C(F)(F)F)cc1C(=O)/N=c1\scc(C(C)(C)C)n1C[C@H]1CCCO1 [Example 57, N-[(2Z)-4-tert-butyl-3-[(2R)-tetrahydrofuran-2-ylmethyl]-1,3-thiazol-2(3H)-ylidene]-2-{[(2S)-1-methylpyrrolidin-2-yl]methoxy}-5-(trifluoromethyl)benzamide] | 289 | – | 15 | – | –
CC(C)(C)NOc1ccc(C(F)(F)F)cc1C(=O)/N=c1\sc(C(C)(C)C)cn1C[C@H]1CCCO1 [Example 65, 2-[(tert-butylamino)oxy]-N-[(2Z)-5-tert-butyl-3-[(2R)-tetrahydrofuran-2-ylmethyl]-1,3-thiazol-2(3H)-ylidene]-5-(trifluoromethyl)benzamide] | 1.8 | – | 0.8 | – | > 27000
Cn1cncc1COc1ccc(C(F)(F)F)cc1C(=O)/N=c1\sc(C(C)(C)C)cn1C[C@H]1CCCO1 [Example 67, N-[(2Z)-5-tert-butyl-3-[(2R)-tetrahydrofuran-2-ylmethyl]-1,3-thiazol-2(3H)-ylidene]-2-[(1-methyl-1H-imidazol-5-yl)methoxy]-5-(trifluoromethyl)benzamide] | 115 | > 27000 | 13 | – | –
CC(C)(C)/C(COc1ccc(C(F)(F)F)cc1C(=O)/N=c1\sc(C(C)(C)C)cn1C[C@H]1CCCO1)=N/O [Example 70, N-[(2Z)-5-tert-butyl-3-[(2R)-tetrahydrofuran-2-ylmethyl]-1,3-thiazol-2(3H)-ylidene]-2-{[(2Z)-2-(hydroxyimino)-3,3-dimethylbutyl]oxy}-5-(trifluoromethyl)benzamide] | 12 | – | 8.1 | – | > 27000
CC(C)(C)c1cn(C[C@H]2CCCO2)/c(=N/C(=O)c2cc(C(F)(F)F)ccc2OCC(C)(C)n2cccc2)s1 [Example 74, N-[(2Z)-5-tert-butyl-3-[(2R)-tetrahydrofuran-2-ylmethyl]-1,3-thiazol-2(3H)-ylidene]-2-[2-methyl-2-(1H-pyrrol-1-yl)propoxy]-5-(trifluoromethyl)benzamide] | 34 | – | 6.6 | – | –
CC(=O)NOc1ccc(C(F)(F)F)cc1C(=O)/N=c1\sc(C(C)(C)C)cn1C[C@H]1CCCO1 [Example 75, 2-[(acetylamino)oxy]-N-[(2Z)-5-tert-butyl-3-[(2R)-tetrahydrofuran-2-ylmethyl]-1,3-thiazol-2(3H)-ylidene]-5-(trifluoromethyl)benzamide] | 1.2 | – | 2.5 | – | –
COCCn1cc(C(C)(C)C)s/c1=N\C(=O)c1cc(C(F)(F)F)ccc1ONC(C)(C)C [Example 76, 2-[(tert-butylamino)oxy]-N-[(2Z)-5-tert-butyl-3-(2-methoxyethyl)-1,3-thiazol-2(3H)-ylidene]-5-(trifluoromethyl)benzamide] | – | – | 5.2 | 20 | –
CC(CN1CCC[C@H]1COc1ccc(C(F)(F)F)cc1C(=O)/N=c1\sc(C(C)(C)C)cn1C[C@H]1CCCO1)=NO [Example 77, N-[(2Z)-5-tert-butyl-3-[(2R)-tetrahydrofuran-2-ylmethyl]-1,3-thiazol-2(3H)-ylidene]-2-({(2S)-1-[2-(hydroxyimino)propyl]pyrrolidin-2-yl}methoxy)-5-(trifluoromethyl)benzamide] | 85 | – | 64 | – | –
CCN(CC)Oc1ccc(C(F)(F)F)cc1C(=O)/N=c1\sc(C(C)(C)C)cn1C[C@H]1CCCO1 [Example 78, N-[(2Z)-5-tert-butyl-3-[(2R)-tetrahydrofuran-2-ylmethyl]-1,3-thiazol-2(3H)-ylidene]-2-[(diethylamino)oxy]-5-(trifluoromethyl)benzamide] | 22 | – | 4.6 | – | –
CC(C)NOc1ccc(C(F)(F)F)cc1C(=O)/N=c1\sc(C(C)(C)C)cn1C[C@H]1CCCO1 [Example 79, N-[(2Z)-5-tert-butyl-3-[(2R)-tetrahydrofuran-2-ylmethyl]-1,3-thiazol-2(3H)-ylidene]-2-[(isopropylamino)oxy]-5-(trifluoromethyl)benzamide] | 0.3 | – | 0.5 | – | –
C[C@@H](O)COc1ccc(C(F)(F)F)cc1C(=O)/N=c1\sc(C(C)(C)C)cn1C[C@H]1CCCO1 [Example 81, N-[(2Z)-5-tert-butyl-3-[(2R)-tetrahydrofuran-2-ylmethyl]-1,3-thiazol-2(3H)-ylidene]-2-{[(2R)-2-hydroxypropyl]oxy}-5-(trifluoromethyl)benzamide] | 1.1 | – | 0.5 | – | –
CC(COc1ccc(C(F)(F)F)cc1C(=O)/N=c1\sc(C(C)(C)C)cn1C[C@H]1CCCO1)=NOC(C)(C)C [Example 82] | 4.9 | – | 1.7 | – | –
CC(C)(C)c1cn(C[C@H]2CCCO2)/c(=N/C(=O)c2cc(C(F)(F)F)ccc2ON=C2CCCC2)s1 [Example 83, N-[(2Z)-5-tert-butyl-3-(2R)-(tetrahydrofuran-2-ylmethyl)-1,3-thiazol-2(3H)-ylidene]-2-[(cyclopentylideneamino)oxy]-5-(trifluoromethyl)benzamide] | – | – | 1.2 | 0.5 | –
CC(=O)C(C)=NOc1ccc(C(F)(F)F)cc1C(=O)/N=c1\sc(C(C)(C)C)cn1C[C@H]1CCCO1 [Example 84, N-[(2Z)-5-tert-butyl-3-[(2R)-tetrahydrofuran-2-ylmethyl]-1,3-thiazol-2(3H)-ylidene]-2-({[1-methyl-2-oxopropylidene]amino}oxy)-5-(trifluoromethyl)benzamide] | 3.3 | – | 2.4 | – | –
